Source: patent US12357711B2, “PSMA binding dual mode radiotracer and therapeutic” (Technische Universität München, priority 2019, dated 2025)
Where “and” joins values, the source holds several entries; their conditions need not be identical. Identical values can stand only once.

What was measured:
[1] = system: PSMA-positive LNCaP cells; assay: Internalization in LNCaP cells, normalized to ([125I]I-BA)KuE; format: cell-based; details: LNCaP cells, 1 hour, 37° C.
Procedure: Data is corrected for non-specific binding ([…]) and expressed as mean±SD (n=3).
Subsequent to the removal of the culture medium, the cells were washed once with 500 μL DMEM-F12 (5% BSA) and left to equilibrate for at least 15 min at 37° C. in 200 μL DMEM-F12 (5% BSA). Each well was treated with either 25 μL of either DMEM-F12 (5% BSA) or a 100 μM PMPA solution for blockade. Next, 25 μL of the ^68Ga/^18F-labeled PSMA inhibitor (5.0 nM) was added and the cells incubated at 37° C. for 60 min. The experiment was terminated by placing the 24-well plate on ice for 3 min and consecutive removal of the medium. Each well was rinsed with 250 μL HBSS and the fractions from these first two steps combined, representing the amount of free radioligand. Removal of surface bound activity was accomplished by incubation of the cells with 250 μL of ice-cold PMPA (10 μM in PBS) solution for 5 min and rinsed again with another 250 μL of ice-cold PBS. The internalized activity was determined by incubation of the cells in 250 μL 1 M NaOH and the combination with the fraction of a subsequent wash step with 250 μL 1.0 M NaOH. Each experiment (control and blockade) was performed in triplicate. Free, surface bound and internalized activity was quantified in a γ-counter. […] Data were corrected for non-specific internalization and normalized to the specific-internalization observed for the radioiodinated reference compound.

[2] = Formation of F-18-fluoride / isotopic exchange in mouse urine; format: in vitro ADME, mice
Procedure: For in vivo μmetabolism studies, 8-12 MBq (<0.6 nmol) of the respective ^18F-labeled ligand (rhPSMA-7.1-7.4) was injected into the tail vein of female healthy CB17-SCID mice (n=4). Mice were left under anesthesia for 30 min and the urine was collected using a bladder catheter. Urine samples were pooled and centrifuged for 5 min at 9000 rpm to remove suspended solids. The supernatant was directly used for radio-HPLC analysis with the above mentioned conditions. […] Additionally, this experiment was carried out with the addition of excess Na^19F (0.5 μmop and incubation for 2 h with ^18F-labeled rhPSMA-7.3.
For this purpose normal mice were used. Urine samples were collected by means of a catheter over a period of 30 min. The urine was centrifuged and directly subjected to HPLC and TLC.
Consequently, fresh and nonradioactive urine samples collected from normal mice were incubated with [F-18]rhPSMA7.x for various time periods (see legend to FIG. 21).
To further support the hypothesis, 500 nmol cold F-19-fluoride was added to fresh and nonradioactive urine of mice, followed by the addition of [F-18]rhPSMA7.3 and incubation for 2 h. According to the hypothesis, the high concentration of [F-19]fluoride should result in the formation of a significant amount of [F-18]fluoride.

## CC(C)(C)[Si](F)(c1ccc(C(=O)NC[C@@H](NC(=O)CC[C@@H](C(=O)O)N2CCN(CC(=O)[O-])CCN(CC(=O)[O-])CCN(CC(=O)[O-])CC2)C(=O)N[C@H](CCCCNC(=O)CCC(=O)NCCC[C@@H](NC(=O)CC[C@H](NC(=O)N[C@@H](CCC(=O)O)C(=O)O)C(=O)O)C(=O)O)C(=O)O)cc1)C(C)(C)C.[Ga+3] [rhPSMA7.3, [^19F][^natGa]D-Dap-S-DOTAGA-rhPSMA7]
[1]; c=0.5 nM, single measurements
  individual internalization rates: 156.6 % of [^125I]IB-KuE and 156.0 % of [^125I]IB-KuE and 171.7 % of [^125I]IB-KuE
[1]; mean
  internalization rate Mean: 161.41 % of [^125I]IB-KuE
[2]; fresh nonradioactive mouse urine + 0.5 μmol (500 nmol) cold F-19-fluoride, incubation 2 h
  radioactivity converted to [F-18]fluoride: 98.5%
[2]; room temperature
  [F-18]rhPSMA7.3 proportion in radioactive urine after addition of 5 nmol [F-19]rhPSMA7-3: 85.8%
[2]; urine with 20.6% [F-18]Fluoride
  [F-18]rhPSMA7.3 proportion in radioactive urine before addition of cold tracer: 79.4%
